{"source": "patent US20160002273A1", "about": "“THIENO[3,2-D]PYRIMIDINE-6-CARBOXAMIDES AND ANALOGUES AS SIRTUIN MODULATORS” (GLAXOSMITHKLINE LLC, priority 2013, published 2016)", "key": {"[1]": {"target": "CYP 2D6 (Homo sapiens, UniProt P10635)", "sequence (P10635 whole entry)": "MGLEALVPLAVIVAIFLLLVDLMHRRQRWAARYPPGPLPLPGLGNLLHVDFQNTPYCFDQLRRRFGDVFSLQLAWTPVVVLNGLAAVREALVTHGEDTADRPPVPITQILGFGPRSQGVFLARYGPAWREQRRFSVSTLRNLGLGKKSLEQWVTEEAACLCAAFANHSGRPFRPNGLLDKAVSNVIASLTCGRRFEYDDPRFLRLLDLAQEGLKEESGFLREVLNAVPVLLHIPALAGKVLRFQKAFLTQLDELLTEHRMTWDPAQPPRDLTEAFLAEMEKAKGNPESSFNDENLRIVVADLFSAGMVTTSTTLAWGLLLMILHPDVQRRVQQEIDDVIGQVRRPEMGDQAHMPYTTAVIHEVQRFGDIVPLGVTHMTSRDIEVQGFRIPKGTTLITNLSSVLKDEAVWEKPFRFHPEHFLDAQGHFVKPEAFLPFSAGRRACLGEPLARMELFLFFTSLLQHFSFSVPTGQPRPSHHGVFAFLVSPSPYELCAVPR", "assay": "CYP inhibition 2D6", "type": "in vitro ADME"}, "[2]": {"assay": "Stability in mouse microsomes", "type": "in vitro ADME"}, "[3]": {"assay": "Kinetic solubility by chemi-luminescent nitrogen detection (CLND)", "type": "physicochemical", "conditions": "aqueous buffer, kinetic from dmso stock, DMSO stock incubated 1 hr in phosphate buffered saline pH 7.4, filtered"}, "[4]": {"assay": "HPLC based lipophilicity assay (CHI LogD)", "type": "physicochemical", "conditions": "CHI values by reverse phase HPLC transformed to a LogD scale"}, "[5]": {"tested_on": "sirtuin mediated deacetylation of acetyl-p65", "assay": "Acetyl-p65 assay in U2OS cells (AlphaScreen)", "type": "cell-based", "conditions": "FIG. 6", "procedure": "In certain embodiments, U2OS cells were counted by hemocytometer and diluted to a concentration of 1.5×10^5 cell/ml. BacMam p65 and BacMam p300-HAT viruses were added to the diluted cells at 1% and 1% (vol/vol). 40 μl aliquots of the cell suspensions containing the viruses were plated onto a 384 well plate with a multi-drop dispenser. After 7 hours, a 2-fold serial dilution of Compounds 25, 28 and Compound 4, hereafter referred to as the test compounds, was carried out in DMSO. The test compounds were subsequently diluted with medium (20-fold) in an intermediate compound plate, and 4 μL of each test compound was transferred by a liquid handler from the intermediate plate to a cell plate. 24 hours post viral transduction, the medium in the cell plate was removed by inverting and flicking the plate, and blotting the plate with paper towels. 30 μl of lysis buffer (25 mM HEPES pH 7.4, 0.5% Triton X-100, 1 mg/ml Dextran 500, 0.1% BSA, 300 mM NaCl, 2 mM MgCl2, 1×protease inhibitor cocktail) was added to each well to lyse the cells. After incubation of the cells with lysis buffer for 30 minutes at room temp, 10 μl and 3 μl aliquots of the cell lysates were transferred to assay plates, and the assay plate containing 3 μl aliquot of cell lysates was diluted with an additional 7 μl of lysis buffer to obtain a final volume of 10 μl. Acetyl-p65 and total p65 protein in cell lysates were measured using the AlphaScreen assay format (PerkinElmer). The antibodies used to detect acetyl-p65 protein were biotinylated anti-HA antibody (Roche, 12158167001) and anti-acetylated K310-p65 antibody (Abcam, ab19870). The antibodies used to detect total p65 protein were biotinylated anti-HA antibody (Roche, 12158167001) and anti-p65 antibody (Santa Cruz, sc109). […] After incubating the plates for another 2 hrs in the dark, the plates were read by a PHERAstar microplate reader. […]"}, "[6]": {"assay": "Stability in human microsomes", "type": "in vitro ADME"}, "[7]": {"target": "CYP 3A4 (Homo sapiens, UniProt P08684)", "sequence (P08684 whole entry)": "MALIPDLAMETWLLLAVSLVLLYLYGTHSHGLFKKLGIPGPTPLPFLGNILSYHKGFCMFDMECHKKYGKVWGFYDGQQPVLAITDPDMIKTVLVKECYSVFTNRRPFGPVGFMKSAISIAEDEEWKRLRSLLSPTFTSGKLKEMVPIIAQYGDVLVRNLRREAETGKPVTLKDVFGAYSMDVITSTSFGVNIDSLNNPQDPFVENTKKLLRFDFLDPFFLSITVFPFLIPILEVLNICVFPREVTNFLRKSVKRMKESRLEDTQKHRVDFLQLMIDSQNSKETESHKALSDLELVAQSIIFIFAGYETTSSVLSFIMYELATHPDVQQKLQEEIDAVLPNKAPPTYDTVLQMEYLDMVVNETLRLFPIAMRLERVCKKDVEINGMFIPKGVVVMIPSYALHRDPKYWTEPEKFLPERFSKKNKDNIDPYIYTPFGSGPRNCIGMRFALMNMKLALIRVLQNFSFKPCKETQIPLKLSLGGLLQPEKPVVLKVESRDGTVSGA", "assay": "CYP inhibition 3A4", "type": "in vitro ADME"}, "[8]": {"target": "T1, SIRT1 (Homo sapiens, UniProt Q96EB6)", "T1 sequence (Q96EB6 1-747)": "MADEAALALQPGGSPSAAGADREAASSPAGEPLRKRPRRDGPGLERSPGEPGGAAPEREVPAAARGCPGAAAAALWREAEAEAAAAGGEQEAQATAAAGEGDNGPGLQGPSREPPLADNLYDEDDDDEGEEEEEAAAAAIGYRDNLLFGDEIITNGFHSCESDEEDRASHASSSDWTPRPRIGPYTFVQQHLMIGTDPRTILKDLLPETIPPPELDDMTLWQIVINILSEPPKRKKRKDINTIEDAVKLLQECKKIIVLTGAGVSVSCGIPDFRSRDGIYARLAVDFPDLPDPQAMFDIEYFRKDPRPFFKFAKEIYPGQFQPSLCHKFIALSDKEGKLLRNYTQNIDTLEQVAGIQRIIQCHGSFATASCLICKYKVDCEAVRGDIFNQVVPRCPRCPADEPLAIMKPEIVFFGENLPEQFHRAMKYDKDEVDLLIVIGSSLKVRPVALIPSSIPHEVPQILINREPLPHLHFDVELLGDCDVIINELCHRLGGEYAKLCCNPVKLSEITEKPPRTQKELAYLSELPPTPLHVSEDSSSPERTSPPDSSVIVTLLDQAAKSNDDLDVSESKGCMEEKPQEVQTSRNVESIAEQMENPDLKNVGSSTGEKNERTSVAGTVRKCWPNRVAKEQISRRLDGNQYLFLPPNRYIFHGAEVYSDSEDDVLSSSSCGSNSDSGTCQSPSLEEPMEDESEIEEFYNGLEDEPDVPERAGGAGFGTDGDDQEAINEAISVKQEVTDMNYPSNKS", "assay": "SIRT1 deacetylation of Trp 5-mer peptide, OAADPr mass spec assay", "protocol": "All assays were performed at room temperature in reaction buffer (50 mM HEPES, pH 7.5, 150 mM NaCl, 1 mM DTT, 0.05% BSA). […] To prepare the assays for analysis, 20 μL of reaction volume was mixed in 80 μL of 50:50 acetonitrile:methanol mixture. […] Peak data was integrated using RapidFire Integrator software (Agilent, Santa Clara, Calif.)."}, "[9]": {"target": "T2, CYP 1A2 (Homo sapiens, UniProt P05177)", "T2 sequence (P05177 1-516)": "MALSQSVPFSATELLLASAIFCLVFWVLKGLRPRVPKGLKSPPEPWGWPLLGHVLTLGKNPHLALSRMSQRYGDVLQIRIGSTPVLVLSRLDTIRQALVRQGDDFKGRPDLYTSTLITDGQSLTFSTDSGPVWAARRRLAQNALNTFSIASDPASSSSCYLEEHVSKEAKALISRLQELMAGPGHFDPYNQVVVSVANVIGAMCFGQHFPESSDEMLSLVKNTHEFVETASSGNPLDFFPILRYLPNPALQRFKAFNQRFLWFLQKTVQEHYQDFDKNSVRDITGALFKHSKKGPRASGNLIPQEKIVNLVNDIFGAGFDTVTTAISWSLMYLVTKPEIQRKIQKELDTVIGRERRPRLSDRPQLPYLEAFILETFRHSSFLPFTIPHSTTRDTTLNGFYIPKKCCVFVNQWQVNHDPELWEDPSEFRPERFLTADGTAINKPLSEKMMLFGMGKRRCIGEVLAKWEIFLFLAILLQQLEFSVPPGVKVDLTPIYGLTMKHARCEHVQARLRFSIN", "assay": "CYP inhibition 1A2", "type": "in vitro ADME"}, "[10]": {"target": "T3, SIRT2 (Homo sapiens, UniProt Q8IXJ6)", "T3 sequence (Q8IXJ6 1-389)": "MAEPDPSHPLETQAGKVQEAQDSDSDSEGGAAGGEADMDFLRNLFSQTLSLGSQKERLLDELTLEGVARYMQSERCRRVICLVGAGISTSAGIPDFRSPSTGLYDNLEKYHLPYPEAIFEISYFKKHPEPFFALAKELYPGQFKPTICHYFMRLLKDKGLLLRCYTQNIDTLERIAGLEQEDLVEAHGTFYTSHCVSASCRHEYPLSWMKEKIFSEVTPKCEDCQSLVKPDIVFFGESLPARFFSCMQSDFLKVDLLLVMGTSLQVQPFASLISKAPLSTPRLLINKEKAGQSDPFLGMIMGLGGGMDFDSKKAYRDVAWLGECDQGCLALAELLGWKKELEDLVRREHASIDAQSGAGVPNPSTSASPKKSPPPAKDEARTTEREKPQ", "assay": "SIRT2 deacetylation of Trp 5-mer peptide, OAADPr mass spec assay", "type": "biochemical", "parameters": "His-SIRT2(1-389)"}, "[11]": {"target": "CYP 2C19 (Homo sapiens, UniProt P33261)", "sequence (P33261 whole entry)": "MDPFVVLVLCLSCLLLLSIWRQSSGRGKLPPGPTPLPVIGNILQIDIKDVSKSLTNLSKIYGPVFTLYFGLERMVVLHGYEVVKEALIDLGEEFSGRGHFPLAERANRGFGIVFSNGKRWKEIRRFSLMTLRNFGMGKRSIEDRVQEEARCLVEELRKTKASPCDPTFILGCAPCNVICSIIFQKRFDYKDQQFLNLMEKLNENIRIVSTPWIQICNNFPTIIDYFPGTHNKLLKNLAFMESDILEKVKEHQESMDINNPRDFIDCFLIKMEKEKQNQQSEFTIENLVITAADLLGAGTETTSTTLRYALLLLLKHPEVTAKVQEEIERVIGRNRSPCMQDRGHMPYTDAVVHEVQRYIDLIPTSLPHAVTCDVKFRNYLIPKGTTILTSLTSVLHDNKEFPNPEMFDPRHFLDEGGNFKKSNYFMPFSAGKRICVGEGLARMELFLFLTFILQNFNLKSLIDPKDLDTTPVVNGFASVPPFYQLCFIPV", "assay": "CYP inhibition 2C19", "type": "in vitro ADME"}}, "note": "Where two headings read alike, the source gives them in different places."}
{"smiles": "CC(C)(C)C(=O)NCCC1CCN(c2ncnc3cc(C(N)=O)sc23)CC1", "note": "[Compound 28, 4-(4-(2-pivalamidoethyl)piperidin-1-yl)thieno[3,2-d]pyrimidine-6-carboxamide]", "values": [{"measurement": "CYP 2D6", "setting": "[1]", "result": "> 50", "unit": "µM"}, {"measurement": "Mouse CLint", "setting": "[2]", "result": 12.7, "unit": "µL/min/mg"}, {"measurement": "solubility at 1 hr", "setting": "[3]", "result": 297, "unit": "µM"}, {"measurement": "LogD", "setting": "[4]", "result": 2.73}, {"measurement": "inhibition of sirtuin mediated deacetylation of acetyl-p65", "setting": "[5]", "result": "inhibit"}, {"measurement": "Human CLint", "setting": "[6]", "result": 15.8, "unit": "µL/min/mg"}, {"measurement": "CYP 3A4", "setting": "[7]", "result": "> 50", "unit": "µM"}, {"measurement": "IC50", "setting": "[8]; Trp SIRT1_IC50, Trp 5-mer peptide, class symbols", "result": "< 1", "unit": "µM"}, {"measurement": "IC50", "setting": "[8]; read-out: IC50 (μM) SIRT1, Trp 5-mer peptide and NAD at KM, mean of at least three determinations", "result": 0.015, "unit": "µM"}, {"measurement": "CYP 1A2", "setting": "[9]", "result": "> 50", "unit": "µM"}, {"measurement": "IC50", "setting": "[10]; Trp 5-mer peptide and NAD at KM, mean of at least three determinations, read-out: IC50 (μM) SIRT2", "result": 0.01, "unit": "µM"}, {"measurement": "IC50", "setting": "[10]; Trp 5-mer peptide, class symbols, read-out: Trp SIRT2_IC50", "result": "< 1", "unit": "µM"}, {"measurement": "CYP 2C19", "setting": "[11]", "result": "> 50", "unit": "µM"}]}
